Reference: patent US20100075965A1, “PI3 KINASE INHIBITORS AND METHODS OF THEIR USE” (Novartis AG, priority 2006, published 2010)

What was measured:
[1] = test system: pSer473-Akt in A2780 cells; test: pSer473 Akt assay to monitor PI3K pathway in A2780 cells (MSD); format: cell-based; settings: Homo sapiens; A2780 cells; read-out: A2780 pAKT 473 EC50
Description: In this method, an assay for measuring the PI3K-mediated pSer^473-Akt status after treatment with representative inhibitor compounds of the preferred embodiments is described.
A2780 cells were cultured in DMEM supplemented with 10% FBS, L-glutamine, sodium pyruvate, and antibiotics. Cells were plated in the same medium at a density of 15,000 cells per well into 96 well tissue culture plates, with outside wells vacant, and allowed to adhere overnight.
Test compounds supplied in DMSO were diluted further into DMSO at 500 times the desired final concentrations before dilution into culture media to 2 times the final concentrations. Equal volumes of 2× compounds in media were added to the cells in 96 well plates and incubated at 37° C. for one hour. The media and compounds were then removed, the plates chilled and cells lysed in a lysis buffer (150 mM NaCl, 20 mM Tris pH 7.5, 1 mM EDTA, 1 mM EGTA, 1% Triton X-100) supplemented with phosphatase and protease inhibitors. After thorough mixing, lysates were transferred to both pSer473Akt and total Akt assay plates from Meso Scale Discovery (MSD), and incubated overnight with shaking at 4° C. The plates were washed with 1×MSD wash buffer and the captured analytes detected with secondary antibodies. After incubation with the secondary antibody at room temperature for 1-2 hours, the plates were washed again and 1.5× concentration of Read Buffer T (MSD) was added to the wells.
The assays were read on a SECTOR Imager 6000 instrument (Meso Scale Discovery). Ratios of the signal from pSer473Akt and total Akt assays were used to correct for any variability and the percent inhibition of pSer473Akt from the total signal seen in cells treated with compound versus DMSO alone was calculated and used to determine EC50 values for each compound as shown in Tables 1 and 2 in the column labeled “A2780 pAKT473 EC50”.

A2780 cells = test: Viability assay in A2780 (Cell Titer Glo); format: cell-based, human; settings: Homo sapiens; A2780 cells; read-out: A2780 Cell prolif. EC50
In short: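 A2780 cells (1,000/well, DMEM + 10% FBS) were exposed to 3-fold serial dilutions of compound for 72 hrs at 37° C, 5% CO2. Viable cells were read by Cell Titer Glo luminescence, in duplicate, and EC50 values were derived from the curves.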

PI3 K Alpha = PI3 K Alpha (Homo sapiens, UniProt P42336); test: PI3 kinase phosphorylation assays (homogenous solution phase, one step solid phase, ATP depletion/KinaseGlo); format: biochemical; settings: read-out: PI3K Alpha IC50
PI3 K Alpha, sequence (P42336 whole entry): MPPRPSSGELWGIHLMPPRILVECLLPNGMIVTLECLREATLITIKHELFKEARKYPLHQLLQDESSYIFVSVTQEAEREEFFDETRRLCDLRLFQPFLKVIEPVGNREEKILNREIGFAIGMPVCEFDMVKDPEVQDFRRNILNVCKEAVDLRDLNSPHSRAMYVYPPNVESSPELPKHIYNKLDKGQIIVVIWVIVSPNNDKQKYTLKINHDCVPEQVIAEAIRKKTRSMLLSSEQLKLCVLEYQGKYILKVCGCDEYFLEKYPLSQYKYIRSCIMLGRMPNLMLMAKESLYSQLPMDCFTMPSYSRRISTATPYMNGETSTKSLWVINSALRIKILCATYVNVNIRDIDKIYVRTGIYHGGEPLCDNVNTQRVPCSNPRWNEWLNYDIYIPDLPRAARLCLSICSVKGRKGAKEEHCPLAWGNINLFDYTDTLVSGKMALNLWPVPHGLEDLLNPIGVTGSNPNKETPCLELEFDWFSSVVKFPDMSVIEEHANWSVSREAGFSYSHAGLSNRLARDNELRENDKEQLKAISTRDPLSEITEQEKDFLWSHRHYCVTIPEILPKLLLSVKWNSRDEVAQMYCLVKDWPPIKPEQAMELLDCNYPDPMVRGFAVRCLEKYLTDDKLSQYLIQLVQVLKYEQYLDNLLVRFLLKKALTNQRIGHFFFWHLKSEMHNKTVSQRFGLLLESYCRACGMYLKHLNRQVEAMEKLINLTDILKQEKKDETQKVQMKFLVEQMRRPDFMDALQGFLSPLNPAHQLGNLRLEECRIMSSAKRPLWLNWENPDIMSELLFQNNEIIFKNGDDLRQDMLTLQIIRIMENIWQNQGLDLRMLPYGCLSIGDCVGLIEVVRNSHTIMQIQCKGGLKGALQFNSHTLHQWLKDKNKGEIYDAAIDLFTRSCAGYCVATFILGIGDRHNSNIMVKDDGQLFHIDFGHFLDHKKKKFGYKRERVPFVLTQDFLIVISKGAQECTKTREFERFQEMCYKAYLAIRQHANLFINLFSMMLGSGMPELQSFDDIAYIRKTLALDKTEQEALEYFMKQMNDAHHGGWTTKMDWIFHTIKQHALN
PI3 K Alpha, sequence (P27986 whole entry partner): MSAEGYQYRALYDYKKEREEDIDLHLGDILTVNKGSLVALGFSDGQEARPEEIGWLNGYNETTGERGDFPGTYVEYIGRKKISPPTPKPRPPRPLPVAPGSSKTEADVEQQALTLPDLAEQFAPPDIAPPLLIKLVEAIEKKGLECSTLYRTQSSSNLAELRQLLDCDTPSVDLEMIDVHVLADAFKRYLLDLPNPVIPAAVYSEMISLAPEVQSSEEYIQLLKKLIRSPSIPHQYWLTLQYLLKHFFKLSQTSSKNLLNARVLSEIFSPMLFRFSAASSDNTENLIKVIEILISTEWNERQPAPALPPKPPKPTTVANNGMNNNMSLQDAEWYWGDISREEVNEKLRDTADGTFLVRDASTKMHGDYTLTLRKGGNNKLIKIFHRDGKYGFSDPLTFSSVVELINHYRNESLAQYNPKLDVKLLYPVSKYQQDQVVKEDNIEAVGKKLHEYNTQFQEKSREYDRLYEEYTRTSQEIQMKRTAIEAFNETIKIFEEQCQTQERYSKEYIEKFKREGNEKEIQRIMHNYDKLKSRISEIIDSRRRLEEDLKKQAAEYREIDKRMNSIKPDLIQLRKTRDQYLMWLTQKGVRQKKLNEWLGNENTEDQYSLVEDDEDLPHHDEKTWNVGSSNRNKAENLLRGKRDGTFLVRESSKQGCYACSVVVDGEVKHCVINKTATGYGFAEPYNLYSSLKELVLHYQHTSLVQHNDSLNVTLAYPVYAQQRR

EC50 [1] [µM]	EC50 (A2780 cells) [µM]	IC50 (PI3 K Alpha) [µM]	Compound
< 1	–	–	CC(=O)Nc1cn2cc(-c3cnc(N)c(C(F)(F)F)c3)ccc2n1 [Example 5, N-[6-(6-Amino-5-trifluoromethyl-pyridin-3-yl)-imidazo[1,2-a]pyridin-2-yl]-acetamide]
< 1	–	–	COc1cc(-c2ccc3nc(NC(C)=O)cn3c2)cnc1N [Example 6, N-[6-(6-Amino-5-methoxy-pyridin-3-yl)-imidazo[1,2-a]pyridin-2-yl]-acetamide]
< 1	–	–	CC(=O)Nc1cn2nc(-c3cnc(N)c(C(F)(F)F)c3)ccc2n1 [Example 16, N-[6-(6-Amino-5-trifluoromethyl-pyridin-3-yl)-imidazo[1,2-b]pyridazin-2-yl]-acetamide]
< 1	–	–	COc1cc(-c2ccc3nc(NC(C)=O)cn3n2)cnc1N [Example 21, N-[6-(6-Amino-5-methoxy-pyridin-3-yl)-imidazo[1,2-b]pyridazin-2-yl]-acetamide]
< 1	–	–	CC(=O)Nc1cn2cc(-c3cnc(N)c(OC(C)C)n3)ccc2n1 [Example 54, N-(6-(5-amino-6-isopropoxy-pyrazin-2-yl)imidazo[1,2-a]pyridin-2-yl)acetamide]
< 1	–	–	CC(=O)Nc1cn2cc(-c3cnc(N)c(O[C@@H](C)C(F)(F)F)n3)ccc2n1 [Example 55, (S)-N-(6-(5-amino-6-(1,1,1-trifluoropropan-2-yloxy)pyrazin-2-yl)imidazo[1,2-a]pyridin-2-yl)acetamide]
< 1	–	–	CC(=O)Nc1cn2cc(-c3cnc(N)c(OCC(F)(F)F)n3)ccc2n1 [Example 56, N-(6-(5-amino-6-(2,2,2-trifluoroethoxy)pyrazin-2-yl)imidazo[1,2-a]pyridin-2-yl)acetamide]
< 1	–	–	COCCOc1nc(-c2ccc3nc(NC(C)=O)cn3c2)cnc1N [Example 61, N-(6-(5-amino-6-(2-methoxyethoxy)pyrazin-2-yl)imidazo[1,2-a]pyridin-2-yl)acetamide]
< 1	–	–	CCOc1nc(-c2ccc3nc(NC(C)=O)cn3c2)cnc1N [Example 62, N-(6-(5-amino-6-ethoxypyrazin-2-yl)imidazo[1,2-a]pyridin-2-yl)acetamide]
< 1	–	–	CC(=O)Nc1cn2cc(-c3cnc(N)c(O[C@H](C)C(F)(F)F)n3)ccc2n1 [Example 70, (R)-N-(6-(5-amino-6-(1,1,1-trifluoropropan-2-yloxy)pyrazin-2-a]pyridin-2-yl)acetamide]
< 1	–	–	COc1nc(-c2ccc3nc(NC(C)=O)cn3c2)cnc1N [Example 101, N-(6-(5-amino-6-methoxypyrazin-2-yl)imidazo[1,2-a]pyridin-2-yl)acetamide]
–	< 10	< 1	Nc1ncc(-c2ccc3nc(NC(=O)CCCn4ccnc4)cn3c2)cc1C(F)(F)F [Example 238, N-(6-(6-amino-5-(trifluoromethyl)pyridin-3-yl)imidazo[1,2-a]pyridin-2-yl)-4-(1H-imidazol-1-yl)butanamide]
–	< 10	< 1	C[C@H](N)C(=O)Nc1cn2nc(-c3cnc(N)c(C(F)(F)F)c3)ccc2n1 [Example 239, (S)-2-amino-N-(6-(6-amino-5-(trifluoromethyl)pyridin-3-yl)imidazo[1,2-b]pyridazin-2-yl)propanamide]
–	< 10	< 1	CCN(CC)Cc1cc(-c2ccc3nc(NC(C)=O)cn3n2)cnc1N [Example 240, N-(6-(6-amino-5-((diethylamino)methyl)pyridin-3-yl)imidazo[1,2-b]pyridazin-2-yl)acetamide]
–	< 10	< 1	CC(=O)Nc1cn2nc(-c3cnc(N)c(CN4CCCC4)c3)ccc2n1 [Example 242, N-(6-(6-amino-5-(pyrrolidin-1-ylmethyl)pyridin-3-yl)imidazo[1,2-b]pyridazin-2-yl)acetamide]
–	< 10	< 1	CC(=O)Nc1nc2ccc(-c3cnc(N)c(C(F)(F)F)c3)cn2c1C(N)=O [Example 243, 2-acetamido-6-(6-amino-5-(trifluoromethyl)pyridin-3-yl)imidazo[1,2-a]pyridine-3-carboxamide]
–	< 10	< 1	CN(CC(=O)Nc1cn2cc(-c3cnc(N)c(C(F)(F)F)c3)ccc2n1)C(=O)OC(C)(C)C [Example 244, tert-butyl 2-(6-(6-amino-5-(trifluoromethyl)pyridin-3-yl)imidazo[1,2-a]pyridin-2-ylamino)-2-oxoethyl(methyl) carbamate]
–	< 10	< 1	N#Cc1cccc(C(=O)Nc2cn3cc(-c4cnc(N)c(C(F)(F)F)c4)ccc3n2)c1 [Example 245, N-(6-(6-amino-5-(trifluoromethyl)pyridin-3-yl)imidazo[1,2-a]pyridin-2-yl)-3-cyanobenzamide]
–	< 10	< 1	NCCC(=O)Nc1cn2nc(-c3cnc(N)c(C(F)(F)F)c3)ccc2n1 [Example 246, 3-amino-N-(6-(6-amino-5-(trifluoromethyl)pyridin-3-yl)imidazo[1,2-b]pyridazin-2-yl)propanamide]
–	< 10	< 1	CC(=O)Nc1nc2ccc(-c3cnc(N)c(C(F)(F)F)c3)cn2c1C#CCNC(=O)OC(C)(C)C [Example 247, tert-butyl 3-(2-acetamido-6-(6-amino-5-(trifluoromethyl)pyridin-3-yl)imidazo[1,2-a]pyridin-3-yl)prop-2-ynylcarbamate]
–	< 10	< 1	CN(C)C1CCN(C(=O)Nc2cn3cc(-c4cnc(N)c(C(F)(F)F)c4)ccc3n2)C1 (stereo not shown) [Example 248, N-(6-(6-amino-5-(trifluoromethyl)pyridin-3-yl)imidazo[1,2-a]pyridin-2-yl)-3-(dimethylamino) pyrrolidine-1-carboxamide]
–	< 10	< 1	COCCOc1nc(-c2ccc3nc(NC(=O)C4CCN4C(C)=O)cn3c2)cnc1N (stereo not shown) [Example 249, 1-acetyl-N-(6-(5-amino-6-(2-methoxyethoxy)pyrazin-2-yl)imidazo[1,2-a]pyridin-2-yl)azetidine-2-carboxamide]
–	< 10	< 1	CC(C)(C)OC(=O)N1CCCCC1CCC(=O)Nc1cn2nc(-c3cnc(N)c(C(F)(F)F)c3)ccc2n1 (stereo not shown) [Example 250, tert-butyl 2-(3-(6-(6-amino-5-(trifluoromethyl)pyridin-3-yl)imidazo[1,2-b]pyridazin-2-ylamino)-3-oxopropyl) piperidine-1-carboxylate]
–	< 10	< 1	CC(C)(C)OC(=O)N1CCC(OCC(=O)Nc2cn3cc(-c4cnc(N)c(C(F)(F)F)c4)ccc3n2)CC1 [Example 251, tert-butyl 4-(2-(6-(6-amino-5-(trifluoromethyl)pyridin-3-yl)imidazo[1,2-a]pyridin-2-ylamino)-2-oxoethoxy) piperidine-1-carboxylate]
–	< 10	< 1	C/C=C/C(=O)Nc1cn2cc(-c3cnc(N)c(C(F)(F)F)c3)ccc2n1 [Example 252, (E)-N-(6-(6-amino-5-(trifluoromethyl)pyridin-3-yl)imidazo[1,2-a]pyridin-2-yl)but-2-enamide]
–	< 10	< 1	C[C@@H](NC(=O)OC(C)(C)C)C(=O)Nc1cn2nc(-c3cnc(N)c(C(F)(F)F)c3)ccc2n1 [Example 253, (R)-tert-butyl 1-(6-(6-amino-5-(trifluoromethyl)pyridin-3-yl)imidazo[1,2-b]pyridazin-2-ylamino)-1-oxopropan-2-ylcarbamate]
–	< 10	< 1	CC(=O)Nc1nc2ccc(-c3cnc(N)c(C(F)(F)F)c3)cn2c1CCc1ccccc1 [Example 254, N-(6-(6-amino-5-(trifluoromethyl)pyridin-3-yl)-3-phenethyl-imidazo[1,2-a]pyridin-2-yl)acetamide]
–	< 10	< 1	CCOC(=O)CC(=O)Nc1cn2cc(-c3cnc(N)c(C(F)(F)F)c3)ccc2n1 [Example 255, ethyl 3-(6-(6-amino-5-(trifluoromethyl)pyridin-3-yl)imidazo[1,2-a]pyridin-2-ylamino)-3-oxopropanoate]
–	< 10	< 1	Nc1ncc(-c2ccc3nc(NC(=O)C4CNC4)cn3c2)cc1C(F)(F)F [Example 256, N-(6-(6-amino-5-(trifluoromethyl)pyridin-3-yl)imidazo[1,2-a]pyridin-2-yl)azetidine-3-carboxamide]
–	< 10	< 1	COC(=O)C1CCN(C(=O)Nc2cn3cc(-c4cnc(N)c(C(F)(F)F)c4)ccc3n2)C1 (stereo not shown) [Example 257, methyl 1-(6-(6-amino-5-(trifluoromethyl)pyridin-3-yl)imidazo[1,2-a]pyridin-2-ylcarbamoyl) pyrrolidine-3-carboxylate]
